This data set concerns the target DGAT2. The settings on record: ASO.

Values joined by “and” are separate entries in the source; they are usually repeats but may differ in a detail not shown here. Identical values can stand only once. After the bases stand the sugars from the 5' end (letter, count) and the backbone: PS all phosphorothioate, else s phosphorothioate and o phosphodiester by linkage. Methylation of C is not given here. e = 2'-O-(2-methoxyethyl) (MOE); d = 2'-deoxy (DNA)

“GAAAGTAGTCTCGAAAGTAG (sugars e5 d10 e5, PS)” showed a target mRNA inhibition (HepG2, 0.12 µM) of 0%.
In the case of “ACCAGGGCCTCCATGTACAT (sugars e3 d14 e3, PS)”, the target mRNA inhibition was 84% (HepG2, 0.12 µM); 27% and 24% (HepG2, 2.5 µM); 63% and 50% (HepG2, 10 µM); 26% (HepG2, 20 µM).
In the case of “CCTAAAGGTGAAGACTGGCT (sugars e5 d10 e5, PS)”, the target mRNA inhibition (HepG2, 2.5 µM) is 77% and 79%; the target mRNA inhibition (HepG2, 10 µM) was 93% and 94%.
As to “ACCAACTCTCAGCTACTCCC (sugars e5 d10 e5, PS)”, the target mRNA inhibition runs as follows: (HepG2, 2.5 µM) 95%; (HepG2, 10 µM) 85%.
Take “GGAGTAGGGCACCAGCCCCC (sugars e5 d10 e5, PS)”: for the setting “HepG2, 0.12 µM”, the target mRNA inhibition was found to be 17%.
On the same count and under the same terms, in the case of “TCTTCACCAGCTGGATGGGA (sugars e5 d10 e5, PS)” it was 50%; in that of “TGGTCAGCAGGTTGTGTGTC (sugars e2 d13 e5, PS)”, 57%.
For “ACAATGGGAATGGTATCGCA (sugars e5 d10 e5, PS)”, the target mRNA inhibition reads like this: (HepG2, 2.5 µM) 59%; (HepG2, 10 µM) 92%.
As for “TTGCTTAAACAGATAAGCAC (sugars e5 d10 e5, PS)”, the target mRNA inhibition (HepG2, 0.12 µM) turned out to be 17%.
Regarding “GCAGGGTTACCCAGCCACTG (sugars e5 d10 e5, PS)”, the target mRNA inhibition was 85% and 67% (HepG2, 2.5 µM); 75% and 88% (HepG2, 10 µM).
For the sequence “TCTTTGCTTGCCAGGTGAGC (sugars e5 d10 e5, PS)”, the target mRNA inhibition came to 67% (HepG2, 2.5 µM) and 71% (HepG2, 10 µM).
As to “AACCAACTCTCAGCTACTCC (sugars e5 d10 e5, PS)”, the target mRNA inhibition was 82% and 71% (HepG2, 2.5 µM); 93% and 97% (HepG2, 10 µM).
In the case of “TTCAAAAAGTAGCTACTGCA (sugars e5 d10 e5, PS)”, where the note is “HepG2, 0.12 µM”, the target mRNA inhibition amounted to 47%.
With “CCTTTGAAATCCAATGCACC (sugars e5 d10 e5, PS)”, the target mRNA inhibition runs as follows: (HepG2, 2.5 µM) 62%; (HepG2, 10 µM) 92%.
As to “TAGAGGTTTACTGCATAGCT (sugars e5 d10 e5, PS)”, the target mRNA inhibition is 84% and 72% (HepG2, 2.5 µM); 85% and 92% (HepG2, 10 µM).
The sequence “GGTTATTGCAACCACTAGGA (sugars e5 d10 e5, PS)” yielded a target mRNA inhibition (HepG2, 2.5 µM) of 80% and a target mRNA inhibition (HepG2, 10 µM) of 91%.
Sequence “AGTTTCGGACCCACTGTGAC (sugars e3 d14 e3, PS)” had a target mRNA inhibition (HepG2, 0.12 µM) of 60%.
For the sequence “TCTCCTCTGCTTCTTGGGCA (sugars e5 d10 e5, PS)”, the target mRNA inhibition was 69% and 67% (HepG2, 2.5 µM); 85% and 82% (HepG2, 10 µM).
In the case of “CACAGCGATGAGCCAGC (sugars e3 d10 e4, PS)”, the target mRNA inhibition (HepG2, 2.5 µM) is 50% and 31%.
In turn, “GTCTTCACCAGCTGGATGGG (sugars e5 d10 e5, PS)” came in with a target mRNA inhibition (HepG2, 0.12 µM) of 42%.
As to “GTGGTCAGCAGGTTGTGTGT (sugars e5 d10 e5, PS)”, the target mRNA inhibition by setting is: (HepG2, 0.12 µM) 44%; (HepG2, 2.5 µM) 0%.
With “GGCAAAGTAACATACCTGCT (sugars e5 d10 e5, PS)”, the target mRNA inhibition is 72% and 91% (HepG2, 2.5 µM); 94% (HepG2, 10 µM).
Under “HepG2, 0.12 µM”, “AGCCTGCCACAGGGCCCTTT (sugars e5 d10 e5, PS)” returned a target mRNA inhibition of 37%.
The sequence “TTCATCTTTCCAGATCCGGA (sugars e5 d10 e5, PS)” gave a target mRNA inhibition (HepG2, 2.5 µM) of 71% and a target mRNA inhibition (HepG2, 10 µM) of 92%.
The sequence “CTGACCTCAGGGTGATCAAG (sugars e5 d10 e5, PS)” displayed a target mRNA inhibition (HepG2, 0.12 µM) of 31%.
Take “TTGCAATGTTGCCATCATAC (sugars e5 d10 e5, PS)”: under “HepG2, 10 µM”, the target mRNA inhibition is 96% and 94%.
As for “ATATAGTTCCTGGTGGTCAG (sugars e5 d10 e5, PS)”, the target mRNA inhibition (HepG2, 0.12 µM) stood at 53%.
Still for that read-out and setting: in the case of “GCTCACTTCTGTGGCCTCTG (sugars e5 d10 e5, PS)” it was 41%.
On the same count and under the same terms, then “CCTTCCAGGGAATAAAATAC (sugars e5 d10 e5, PS)”, with 3%.
Regarding “CAAGAGGTAAGGCCAAGGAA (sugars e5 d10 e5, PS)”, the target mRNA inhibition by setting is: (HepG2, 2.5 µM) 75%; (HepG2, 10 µM) 90%.
For the sequence “CCTCGATGTTACATTAAGGG (sugars e5 d10 e5, PS)”, the target mRNA inhibition (HepG2, 2.5 µM) was 82% and 88%; the target mRNA inhibition (HepG2, 10 µM) was 86% and 90%.
“AAATGGTAGCCCCTTGTTGC (sugars e5 d10 e5, PS)” returned a target mRNA inhibition (HepG2, 0.12 µM) of 32%.
With “GCAGGTTCATCTGCCTT (sugars e3 d10 e4, PS)”, the target mRNA inhibition (HepG2, 2.5 µM) came out at 54% and the target mRNA inhibition (HepG2, 10 µM) stood at 82%.
For “TGACTGCATTCTTGCCAGGC (sugars e5 d10 e5, PS)” the same measures were 16% and 69%.
In the same order, the values of “CCCGGAGTAGGCGGCTATGA (sugars e5 d10 e5, PS)” are 60% and 89%.

Values taken from the OligoGym collection.
